Where two headings read alike, the source gives them in different places.
Assay: MicroPET/CT imaging and biodistribution, HepG2 tumor model
Type: in vivo, nude mice
Conditions: both sexes, BALB/c nude, mouse, iv, 5.55 MBq, total radioactivity; for tissue to tissue ratio at 1 h / tissue to tissue ratio at 0.5 h / tissue to tissue ratio at 2 h: HepG2 (GPC3+) tumor bearing mice; for tissue to tissue ratio at 1 h / tissue uptake at 1 h: 60 min; for tissue to tissue ratio at 0.5 h / tissue uptake at 0.5 h: 30 min; for tissue to tissue ratio at 2 h / tissue uptake at 2 h: 120 min; for tissue uptake at 0.5 h / tissue uptake at 1 h / tissue uptake at 2 h: HepG2 (GPC3+) tumor model, PET
Procedure: MicroPET/CT Imaging and Biodistribution. MicroPET/CT scans were carried out using a Siemens Inveon PET/CT scanner (Siemens, Germany). Tumor-bearing mice (n=3/group) were intravenously injected with 5.55 MBq of Al[^18F]F-GP2076 or Al[^18F]F-GP2633 under isoflurane anesthesia. A ten-minute static PET scan for each animal was acquired at 30, 60, and 120 min after the injection. 3-Dimensional ordered subset expectation maximization (3D-OSEM) algorithm was used for the PET reconstruction, and CT was applied for attenuation correction. Detailed procedures for the microPET/CT imaging and biodistribution are provided in ESM.
All animal experiments were conducted according to the guideline of the Nanfang Hospital Animal Ethics Committee at the Southern Medical University. Male or female BALB/c nude mice (about 4-6 weeks old) were obtained from the Laboratory Animal Center at Southern Medical University. The HepG2 and McA-RH7777 HCC xenografts were established by subcutaneous injection of 1×10^6 tumor cells into the left shoulder of nude mice. The animals were used for in vivo studies when the tumors reached a size of 0.5-1 cm in diameter (4-6 weeks after inoculation).
Inveon Research Workplace (IRW) 3.0 software (Siemens, Germany) was used to measure the regions of interest (ROIs) determined by superimposing the ellipsoid volume of interest (VOI) on the target tissues. The radioactivity concentrations were measured by the mean pixel intensity within each VOI and converted to dose/ml using a calibration constant. Assuming the tissue density of 1 g/ml, the ROI was then converted to dose per gram and normalized as the percent injected dose per gram (% ID/g). Tumor-to-nontarget uptake ratios, including tumor-to-muscle (T/M), tumor-to-liver (T/L), and tumor-to-kidneys (T/K) ratios, were calculated by dividing the radioactivity uptake in tumor by that in the corresponding normal tissue or organ.

[1] = HepG2 tumor / liver, read-out: Tumor-to-liver (T/L) uptake ratio
[2] = HepG2 tumor / muscle, read-out: Tumor-to-muscle (T/M) uptake ratio
[3] = intestine, read-out: Intestinal uptake
[4] = decay-corrected, read-out: Tumor uptake
[5] = kidneys, read-out: Kidneys uptake
[6] = muscle, read-out: Muscle uptake
[7] = tumor / kidneys, read-out: Tumor-to-kidneys (T/K) uptake ratio

Molecule CC(C)C[C@H](NC(=O)[C@H](CCCNC(=N)N)NC(=S)Nc1ccc(CC2CN(CC(=O)O)CCN(CC(=O)O)CCN2CC(=O)O)cc1)C(=O)N[C@@H](CC(N)=O)C(=O)N[C@H](C(=O)NCC(=O)NCC(=O)N[C@H](C(=O)N[C@@H](Cc1ccc(O)cc1)C(=O)N[C@@H](Cc1ccccc1)C(=O)N[C@@H](CC(C)C)C(=O)N[C@H](C(=O)N[C@H](C(=O)N[C@@H](CCCNC(=N)N)C(=O)N[C@@H](CCC(N)=O)C(=O)O)[C@@H](C)O)[C@@H](C)O)[C@@H](C)O)C(C)C (single isomer, unassigned) [Al[^18F]F-GP2076] has a tissue to tissue ratio at 1 h (HepG2 tumor / kidneys, read-out: Tumor-to-kidneys (T/K) uptake ratio) of 0.31 ± 0.04, a tissue to tissue ratio at 0.5 h [1] of 0.43 ± 0.06 and a tissue to tissue ratio at 1 h [1] of 0.59 ± 0.14. It also gave a tissue to tissue ratio at 2 h [1] of 0.46 ± 0.4, a tissue to tissue ratio at 0.5 h [2] of 5.56 ± 1.36 and a tissue to tissue ratio at 1 h [2] of 5.13 ± 2.08. The tissue to tissue ratio at 2 h [2] was 2.68 ± 0.29, the tissue uptake at 0.5 h (bone, read-out: Bone uptake) was 0.95 %ID/g and the tissue uptake at 1 h (bone, read-out: Bone uptake) was 0.35 %ID/g. It also gave a tissue uptake at 2 h (bone, read-out: Bone uptake) of 0.21 %ID/g, a tissue uptake at 0.5 h (brain, read-out: Brain uptake) of 0.63 %ID/g and a tissue uptake at 1 h (brain, read-out: Brain uptake) of 0.18 %ID/g. It also gave a tissue uptake at 2 h (brain, read-out: Brain uptake) of 0.13 %ID/g, a tissue uptake at 0.5 h (heart, read-out: Heart uptake) of 1.29 %ID/g and a tissue uptake at 1 h (heart, read-out: Heart uptake) of 1.05 %ID/g. For the same molecule, the tissue uptake at 2 h (heart, read-out: Heart uptake) was 0.36 %ID/g, the tissue uptake at 0.5 h [3] was 3.03 %ID/g and the tissue uptake at 1 h [3] was 2.57 %ID/g. For the same molecule, the tissue uptake at 2 h [3] was 1.8 %ID/g, the tissue uptake at 0.5 h [4] was 2.2 %ID/g and the tissue uptake at 1 h [4] was 2.13 %ID/g. For the same molecule, the tissue uptake at 2 h [4] was 0.73 %ID/g, the tissue uptake at 0.5 h [5] was 9.83 %ID/g and the tissue uptake at 1 h [5] was 7.03 %ID/g. It also gave a tissue uptake at 2 h [5] of 2.27 %ID/g, a tissue uptake at 0.5 h (liver, read-out: Liver uptake) of 5.1 %ID/g and a tissue uptake at 1 h (liver, read-out: Liver uptake) of 3.7 %ID/g. The tissue uptake at 2 h (liver, read-out: Liver uptake) was 2.07 %ID/g, the tissue uptake at 0.5 h (lung, read-out: Lung uptake) was 1.57 %ID/g and the tissue uptake at 1 h (lung, read-out: Lung uptake) was 0.78 %ID/g. It also gave a tissue uptake at 2 h (lung, read-out: Lung uptake) of 0.43 %ID/g, a tissue uptake at 0.5 h [6] of 0.41 %ID/g and a tissue uptake at 1 h [6] of 0.44 %ID/g. It also gave a tissue uptake at 2 h [6] of 0.28 %ID/g, a tissue to tissue ratio at 0.5 h [7] of 0.25 ± 0.11 and a tissue to tissue ratio at 2 h [7] of 0.46 ± 0.46.

From US20210347709A1, “RADIOFLUORINATED GPC3-BINDING PEPTIDES FOR PET IMAGING OF HEPATOCELLULAR CARCINOMA” (University of Southern California, priority 2020, published 2021)
